Each structure is given as a SMILES string. Where a name gives a salt, the structure may show the parent alone. Some results are limits rather than exact numbers.

Series [1] deals with T1, human ProRS (prolyl tRNA synthetase moiety of glutamyl prolyl tRNA synthetase) (Homo sapiens, UniProt P07814).
T1 construct: The prolyl tRNA synthetase moiety (ProRS) in the cDNA of glutamyl prolyl tRNA synthetase was subcloned; 6xHis (N, cleaved yes); made in house; host or cells: E. coli BL21 (DE3)
T1 sequence (P07814 1007-1512 limits assumed): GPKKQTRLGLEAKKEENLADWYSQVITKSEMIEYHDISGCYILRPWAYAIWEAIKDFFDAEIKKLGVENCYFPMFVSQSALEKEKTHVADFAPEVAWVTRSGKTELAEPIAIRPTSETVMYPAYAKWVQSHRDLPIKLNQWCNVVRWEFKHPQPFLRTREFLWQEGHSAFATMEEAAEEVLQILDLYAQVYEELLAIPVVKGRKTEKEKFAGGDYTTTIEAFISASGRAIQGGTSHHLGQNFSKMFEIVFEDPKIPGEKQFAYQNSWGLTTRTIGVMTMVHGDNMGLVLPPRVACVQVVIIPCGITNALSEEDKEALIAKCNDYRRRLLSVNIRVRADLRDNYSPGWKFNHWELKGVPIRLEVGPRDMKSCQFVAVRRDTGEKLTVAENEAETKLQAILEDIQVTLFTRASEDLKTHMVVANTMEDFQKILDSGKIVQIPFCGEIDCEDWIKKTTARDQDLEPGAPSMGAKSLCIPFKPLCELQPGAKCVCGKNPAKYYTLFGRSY
Nature of the series: Assay for inhibitors of prolyl tRNA synthetase activity (ProRS assay, labeled proline incorporation). Type of series: biochemical. The conditions noted are these: ProRS 20 nM, compounds 10 μM to 0.5 nM, 10 min at 37° C.; read-out: EPR IC50. An excerpt: In order to establish the activities of the compounds highlighted above, we determined extent of inhibition of prolyl tRNA synthetase activity in dose response curves to obtain IC50 values.
The prolyl tRNA synthetase moiety (ProRS) in the cDNA of glutamyl prolyl tRNA synthetase was subcloned, tagged with a single biotin, purified and used in the assay. Briefly, human ProRS with a 6× N-terminal His tag in pET28N with TVMV BioP was transformed in E. coli BL21 (DE3) cells, selected, overexpressed and purified using a Ni Seph 6 FF XK 16/20 column in the first stage. Ni-NTA eluates were pooled and treated with TVMV protease, and biotinylated using d-Biotin, MgCl2, ATP and the BirA enzyme. This was rerun through a Ni column as before. The eluates were further enriched and purified using membrane ultrafiltration and a SuperDex 200 XK 16/60 column, and peak fractions were confirmed by SDS-PAGE prior to protein amount determination, aliquoting and storage at −80° C.
ProRS assay was performed in 96 well plates in a final reaction volume of 20 μl, using staggered additions of Tris-Cl (pH 7.5, 60 mM), dithiothreitol (2 mM), ATP (5 mM, pH 7.0), MgCl2 6 mM), ProRS (20 nM, with pre-determined active fraction range) and bovine tRNA (20 μg). Controls and compounds, at various concentrations (10 μM to 0.5 nM), were incubated on ice with enzyme mix for 15 min followed by addition of proline (non-labeled and labeled, 3.96 and 1.04 μM (1 μCi) respectively) to initiate the reaction. Reaction was carried out for 10 min at 37° C. and terminated by addition of TCA (10%, 100 μl). Reaction mix was collected on a Whatman GF/B filter using a vacuum filtration manifold. This filter was washed 3 times with 5% TCA followed by 2 washes with ethanol, air dried, and read using a liquid scintillation counter (TopCount NXT) using MicroScint O. IC50 values were calculated and analyzed using ToolSet (4-parameter plot) and depicted herein.

The next series has as its system Rat hepatocytes. The experiment in a line: GSH trapping assay. The class given is in vitro ADME. The conditions noted are these: 30 μM, 24 hr incubation, LC-MS detection of GSH adducts. Here is the method: Rat hepatocytes were isolated from male Sprague-Dawley rats (Vivo Biotech Ltd, HYD, India), weighing 230 to 280 g by the two step collagenase perfusion method (seglen, 1976; Berry M N and Friend D S.1969). Rat hepatocytes were cultured in Dulbecco's Modified Eagle's Medium (DMEM, Gibco®, USA) supplemented with 10^−6M dexamethasone (Gibco®), 5% fetal bovine serum (Gibco®) and cocktail-A mix (CM3000, Gibco®) containing HEPES buffer (PH 7.4), GlutaMAX™, human recombinant insulin, penicillin and streptomycin. Initial cell viability assessed by Trypanblue stain 0.4% (Sigma, UK) and viability more than 80% were considered for culturing. Hepatocytes were seeded in 96 well type-I collagen coated plates (Gibco®) at 4×10^4 cells/well in 100 μL of the culture medium and incubated at 37° C. in 5% CO2 and 95% relative humidity (RH) for 4 hr of cell attachment.
After 4hr incubation, rat hepatocytes were washed twice with pre-warmed (37° C.) DMEM incubation medium supplemented with 10^−7M dexamethasone and cell maintenance cocktail-B (CM4000, Gibco®) solution to remove unattached cells. Post washing hepatocytes were treated with test and reference compounds in incubation medium at single concentration (30 μM) in duplicate and incubate further for 24 hr at 37° C. with 5% CO2 and 95% RH. The final concentration of DMSO in medium was 0.5%.
Post 24 hr incubation, hepatocyte samples were quenched with equal volumes of acetonitrile containing 0.1% formic acid followed by vortex mix, sonicate and centrifuge at 12000 rpm at room temperature for 5 min. Supernatant samples were analyzed for GSH adducts on a C18 reverse-phase column (Xbridge™ Shield, C18, 4.6×150 mm, 3.5 μm) with solvent A (10 mM ammonium formate and 0.1% formic acid/water) and solvent B (0.1% formic acid/acetonitrile).
The column was eluted with 5% B for 5 min and then with a linear gradient to 20% B over 10 min and it was maintained upto 15 min, then it was increased linearly to 40% B upto 27 min and then increase to 90% B upto 29 min, and then equilibrate back the column to 5% B upto 33 min at a flow rate of 0.6 ml/min. The column effluent was directed into the ESI source of a LTQ Velos Orbitrap mass spectrometer (Thermo Fisher Scientific, San Jose, Calif.). The ESI conditions were as follows: sheath gas flow rate, 40 arbitrary units; auxiliary gas, 30 arbitrary units; spray voltage, 4.5 kV; capillary temperature, 230° C.; capillary voltage, 30 V; and tube lens offset, 25 V. Data were acquired in positive ion mode using Xcalibur software (Thermo Fisher Scientific) with one full scan followed by two data-dependent scans of the most intense and the second most intense ions. During the data interpretation the characteristic fragments of neutral loss of glycine (75.0320 Da), pyroglutamic acid (129.0426 Da) and loss of neutral moiety GSH (307.0838 Da) and/or a specific fragment of (GSH+H)^+ (m/z 308.0911) were monitored. Finally, the fragments ions with m/z e.g. 179.0485, 177.0328 and 162.0219 Da, which were derived from the glutathione moiety were used to report GSH positive results.

As for `Cc1cc(C)c2ncn(CC(=O)C[C@H]3NCCC[C@@H]3O)c(=O)c2n1` [Example 1, 3-{3-[(2R,3S)-3-Hydroxypiperidin-2-yl]-2-oxopropyl}-6,8-dimethylpyrido[3,2-d]pyrimidin-4(3H)-one dihydrochloride], in series [1], the IC50 is 28 nM. The GSH adduct formation result with Rat hepatocytes is recorded as “Negative”. In the case of `O=C(C[C@H]1NCCC[C@@H]1O)Cn1cnc2cccnc2c1=O` [Example 2, 3-{3-[(2R,3S)-3-Hydroxypiperidin-2-yl]-2-oxopropyl}pyrido[3,2-d]pyrimidin-4(3H)-one dihydrochloride], in series [1], the IC50 is 15 nM. In addition, in the series on Rat hepatocytes, the GSH adduct formation result is “Negative”. The matching figures for `Cc1cc(C)c2ncn(CC(=O)C[C@@H]3CCCCN3)c(=O)c2n1.Cl.Cl` [Example 10, (S)-6,8-dimethyl-3-(2-oxo-3-(piperidin-2-yl)propyl)pyrido[3,2-d]pyrimidin-4(3H)-one dihydrochloride]: 773 nM and “Negative”. In the case of `O=c1c2nc(-c3cccc(C(F)(F)F)c3)ccc2ncn1C[C@@H](O)C[C@H]1NCCC[C@@H]1O` [Example 23, 3-{(S)-2-Hydroxy-3-[(2R,3S)-3-hydroxypiperidin-2-yl]propyl}-6-[3-(trifluoromethyl)phenyl]pyrido[3,2-d]pyrimidin-4(3H)-one dihydrochloride], the IC50 in series [1] came out at 28 nM. In addition, the GSH adduct formation entry in the series on Rat hepatocytes was “Negative”. As for `Cc1cc(-c2cccc(C(F)(F)F)c2)nc2c(=O)n(C[C@@H](O)C[C@H]3NCCC[C@@H]3O)cnc12` [Example 28, 3-{(2S)-2-hydroxy-3-[(2R,3S)-3-hydroxy-2-piperidyl]propyl}-8-methyl-6-[3-(trifluoromethyl)phenyl]pyrido[3,2-d]pyrimidin-4-one;dihydrochloride], the IC50 in series [1] came out at 27 nM. On to `O=c1c2nc(-c3cccnc3)ccc2ncn1C[C@@H](O)C[C@H]1NCCC[C@@H]1O` [Example 29, 3-{(S)-2-hydroxy-3-[(2R,3S)-3-hydroxypiperidin-2-yl]propyl}-6-(pyridin-3-yl)pyrido[3,2-d]pyrimidin-4(3H)-one 2,2,2-trifluoroacetate], for which the IC50 in series [1] came out at 103 nM. Consider `Cc1cc(C2CC2)nc2c(=O)n(C[C@@H](O)C[C@H]3NCCC[C@@H]3O)cnc12` [Example 30, 6-cyclopropyl-3-{(S)-2-hydroxy-3-[(2R,3S)-3-hydroxypiperidin-2-yl]propyl}-8-methylpyrido[3,2-d]pyrimidin-4(3H)-one dihydrochloride], for which the IC50 in series [1] came to 425 nM. Turning to `Cc1cc(-c2cccc(F)c2)nc2c(=O)n(C[C@@H](O)C[C@H]3NCCC[C@@H]3O)cnc12` [Example 32, 6-{(3-fluorophenyl)-3-[(S)-2-hydroxy-3-(2R,3S)-3-hydroxypiperidin-2-yl-propyl)-8-methylpyrido[3,2-d]}pyrimidin-4(3H)-one dihydrochloride], in series [1], the IC50 was 79 nM. On the same count and under the same terms, the result for `Cc1cc(-c2cccc(Cl)c2)nc2c(=O)n(C[C@@H](O)C[C@H]3NCCC[C@@H]3O)cnc12` [Example 33, 6-(3-chlorophenyl)-3-{(S)-2-hydroxy-3-[(2R,3S)-3-hydroxypiperidin-2-yl]propyl}-8-methylpyrido[3,2-d]pyrimidin-4(3H)-one dihydrochloride] reads 23 nM; that for `Cc1cc(-c2cccnc2)nc2c(=O)n(C[C@@H](O)C[C@H]3NCCC[C@@H]3O)cnc12` [Example 34, 3-{(S)-2-hydroxy-3-[(2R,3S)-3-hydroxypiperidin-2-yl]propyl}-8-methyl-6-(pyridin-3-yl)pyrido[3,2-d]pyrimidin-4(3H)-one trihydrochloride], 290 nM. The same measure, in the same setting: in the case of `Cc1cc(C(C)C)cc2c(=O)n(C[C@@H](O)C[C@@H]3CCCCN3)cnc12` [Example 35, 3-{(S)-2-hydroxy-3-[(S)-piperidin-2-yl]-propyl}-6-isopropyl-8-methylquinazolin-4(3H)-one hydrochloride] it was 1390 nM; in that of `Cc1cc(C)c2ncn(C[C@@H](O)C[C@@H]3CCCCN3)c(=O)c2n1` [Example 36, 3-{(S)-2-hydroxy-3-[(S)-piperidin-2-yl]propyl}-6,8-dimethylpyrido[3,2-d]pyrimidin-4(3H)-one dihydrochloride], 2180 nM. Still for that read-out and setting: the result for `Cc1cc(C)c2ncn(C[C@@H](O)C[C@H]3NCC[C@@H]3O)c(=O)c2n1` [Example 37, 3-{(S)-2-hydroxy-3-[(2R,3S)-3-hydroxypyrrolidin-2-yl]propyl}-6,8-dimethylpyrido(3,2-d)pyrimidin-4(3H)-one bis (2,2,2-trifluoroacetic acid)] reads over 10000 nM; that for `O=c1c2cnccc2ncn1C[C@@H](O)C[C@H]1NCC[C@@H]1O` [Example 38, 3-{(S)-2-hydroxy-3-[(2R,3S)-3-hydroxypyrrolidin-2-yl]-propyl}pyrido[4,3-d]pyrimidin-4(3H)-one bis (2,2,2-trifluoroacetic acid)], 2300 nM. Regarding `Cc1cc(-c2cccc(F)c2)cn2c(=O)c(NC(=O)C[C@H]3NCCC[C@@H]3O)cnc12` [Example 40, N-(7-(3-fluorophenyl)-9-methyl-4-oxo-4H-pyrido[1,2-a]pyrimidin-3-yl)-2-((2R,3S)-3-hydroxypiperidin-2-yl)acetamide 2,2,2-trifluoroacetic acid], in series [1], the IC50 came out at 2730 nM. Still for that read-out and setting: in the case of `Cc1cc(C(F)(F)F)cn2c(=O)c(NC(=O)C[C@H]3NCCC[C@@H]3O)cnc12` [Example 41, 2-((2R,3S)-3-hydroxypiperidin-2-yl)-N-(9-methyl-4-oxo-7-(trifluoromethyl)-4H-pyrido[1,2-a]pyrimidin-3-yl)acetamide 2,2,2-trifluoroacetic acid] it was over 8000 nM.

The record behind these values is patent publication US20210122746A1, “FEBRIFUGINE DERIVATIVES” (BRISTOL-MYERS SQUIBB COMPANY, priority 2017, published 2021).
